The structures appear in SMILES notation. Where a name gives a salt, the structure may show the parent alone.

We go through 26 compounds from patent publication US11571423B2, “Small molecule modulators of human sting” (Curadev Pharma Limited, priority 2017, dated 2023).

Sequence of hSTING(R232) (Q86WV6 whole entry H232R): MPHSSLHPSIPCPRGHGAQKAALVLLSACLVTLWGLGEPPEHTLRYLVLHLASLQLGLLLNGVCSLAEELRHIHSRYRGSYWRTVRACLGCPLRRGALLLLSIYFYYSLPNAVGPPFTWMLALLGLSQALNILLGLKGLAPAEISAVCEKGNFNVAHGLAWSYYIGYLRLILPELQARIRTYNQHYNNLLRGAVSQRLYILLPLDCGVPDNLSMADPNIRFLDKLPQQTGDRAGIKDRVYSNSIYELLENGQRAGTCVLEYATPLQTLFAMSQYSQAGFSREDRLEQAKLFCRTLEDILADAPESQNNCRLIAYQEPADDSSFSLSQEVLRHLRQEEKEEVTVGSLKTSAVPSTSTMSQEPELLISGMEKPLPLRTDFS

For the assay, the target named is hSTING(R232) (Homo sapiens, UniProt Q86WV6, H232R). In words: Luciferase reporter assay in HEK293T-hSTING-Luciferase cells, R232 (wild type) human STING. In kind it is cell-based. The following applies: 20 hr stimulation, read-out: R232 human activity (EC50 range). The text has this:
Stable Cell Line Generation • a) Stable STING expressing cells—Stable HEK293T STING-expressing cell lines were generated using plasmids purchased from Invivogen, CA, USA, that contain STING cDNA cloned into the pUNO-1 vector under hEF1-HTLV promoter and containing the Blasticidin selection cassette. The plasmids hSTING(R232), hSTING(H232), hSTING(HAQ) were directly procured from Invivogen while hSTING (AQ) and hSTING (Q) were derived from hSTING(HAQ) and hSTING (R232) plasmids respectively by using a PCR based site directed mutagenesis method. These vectors were individually transfected into HEK293T cells using Lipofectamine (Invitrogen) and transfected cells were selected under Blasticidin selection. These transfected cells were further subjected to clonal selection using the limiting dilution method to obtain clonally pure populations of HEK cells transfected with each of the above mentioned human STING variants. Only those clones were selected in which ligand independent activation of STING was minimal. • b) Stable Luciferase reporter gene expressing cells—Stable HEK293T Luciferase reporter gene expressing cell lines were generated using pCDNA4 plasmids under an IRF-inducible promoter. This promoter is comprised of five tandem interferon-stimulated response elements (ISRE) fused to an ISG54 minimal promoter. This vector was transfected into HEK293T cells using Lipofectamine (Invitrogen) and transfected cells were selected under Zeocin selection. These transfected cells were further subjected to clonal selection using the limiting dilution method to obtain clonally pure populations of HEK cells transfected the Luciferase reporter construct. Only those clones were selected in which ligand independent induction of luciferase was minimal.
5×10^5 clonally selected HEK293T-hSTING-Luciferase cells were seeded in 384-well plates in growth medium and stimulated with novel compounds. After 20 hr of stimulation supernatant were removed and secretary reporter gene activity were measured using the Quanti-Luc detection system (Invivogen) on a Spectramax i3X luminometer.
In the tables below, EC50 value ranges for exemplary compounds are given.
All compounds were first tested in a primary screen to obtain a ‘fold-induction’ over baseline levels of protein activity.
In the case of `CN1Cc2ccc(C(=O)NCc3c(F)cc(F)cc3F)cc2N(Cc2c(F)cccc2Cl)C1=O` [Example 5, 1-(2-chloro-6-fluorobenzyl)-3-methyl-2-oxo-N-(2,4,6-trifluorobenzyl)-1,2,3,4-tetrahydroquinazoline-7-carboxamide], the EC50 was under 1000 nM.
With `CN1Cc2ccc(C(=O)NCc3c(F)cc(F)cc3F)cc2N(Cc2ccc(F)cc2Cl)C1=O` [Example 17, 1-(2-chloro-4-fluorobenzyl)-3-methyl-2-oxo-N-(2,4,6-trifluorobenzyl)-1,2,3,4-tetrahydroquinazoline-7-carboxamide], the EC50 was 1000 to 10000 nM.
In the case of `C[C@H]1c2ccc(C(=O)NCc3c(F)cc(O)cc3F)cc2N(Cc2c(F)cc(O)cc2F)C(=O)N1C` [Example 150, (S)—N,1-bis(2,6-Difluoro-4-hydroxybenzyl)-3,4-dimethyl-2-oxo-1,2,3,4-tetrahydroquinazoline-7-carboxamide], the EC50 was under 1000 nM.
Turning to `C[C@H]1c2ccc(C(=O)NCc3c(F)cc(F)cc3F)cc2N(Cc2c(F)ccc(OCCCOP(=O)(O)O)c2F)C(=O)N1C` [Example 104, (S)-3-(3-((3,4-dimethyl-2-oxo-7-((2,4,6-trifluorobenzyl)carbamoyl)-3,4-dihydroquinazolin-1(2H)-yl)methyl)-2,4-difluorophenoxy)propyl dihydrogen phosphate], the EC50 was under 1000 nM.
With `CC1c2ccc(C(=O)NCc3c(F)cc(F)cc3F)cc2N(Cc2ccccc2)C(=O)N1C` (centres unmarked) [Example 191, 1-benzyl-3,4-dimethyl-2-oxo-N-(2,4,6-trifluorobenzyl)-1,2,3,4-tetrahydroquinazoline-7-carboxamide], the EC50 was under 1000 nM.
As for `C[C@H]1c2ccc(C(=O)NCc3c(F)cc(F)cc3F)cc2N(Cc2c(F)ccc(OC(=O)N(C)CCC(=O)OCc3ccccc3)c2Cl)C(=O)N1C` [Example 140, (S)-Benzyl 3-((2-chloro-3-((3,4-dimethyl-2-oxo-7-((2,4,6-trifluorobenzyl)carbamoyl)-3,4-dihydroquinazolin-1(2H)-yl)methyl)-4-fluorophenoxy)carbonyl)(methylamino)propanoate], the EC50 was over 10000 nM.
For the compound `CC1c2ccc(C(=O)NCc3c(F)cc(F)cc3F)cc2N(Cc2cc(OCC(=O)O)ccc2F)C(=O)N1C` (centres unmarked) [Example 229, 2-(3-((3,4-dimethyl-2-oxo-7-((2,4,6-trifluorobenzyl)carbamoyl)-3,4-dihydroquinazolin-1(2H)-yl)methyl)-4-fluorophenoxy)acetic acid], the EC50 was over 10000 nM.
Consider `Cc1ccc(CN2C(=O)N(C)[C@@H](C)c3ccc(C(=O)NCc4c(F)cc(F)cc4F)cc32)c(F)c1` [Example 170, (S)-1-(2-fluoro-4-methylbenzyl)-3,4-dimethyl-2-oxo-N-(2,4,6-trifluorobenzyl)-1,2,3,4-tetrahydroquinazoline-7-carboxamide], for which the EC50 is under 1000 nM.
Consider `CC1c2ccc(C(=O)NCc3c(F)cc(F)cc3F)cc2N(Cc2ccc(OCCO)cc2F)C(=O)N1C` (centres unmarked) [Example 230, 1-(2-fluoro-4-(2-hydroxyethoxy)benzyl)-3,4-dimethyl-2-oxo-N-(2,4,6-trifluorobenzyl)-1,2,3,4-tetrahydroquinazoline-7-carboxamide], for which the EC50 is under 1000 nM.
`C[C@@H]1c2ccc(C(=O)NCc3c(F)cc(F)cc3F)cc2N(Cc2c(F)cccc2Cl)C(=O)N1C` (single isomer, unassigned) [Example 75]: the EC50 lay within 1000 to 10000 nM.
On to `Cc1nc(CN2C(=O)N(C)Cc3ccc(C(=O)NCc4c(F)cc(F)cc4F)cc32)co1` [Example 36, 3-methyl-1-((2-methyloxazol-4-yl)methyl)-2-oxo-N-(2,4,6-trifluorobenzyl)-l,2,3,4-tetrahydroquinazoline-7-carboxamide], for which the EC50 is over 10000 nM.
Regarding `CC1c2ccc(C(=O)NCc3c(F)cc(F)cc3F)cc2N(Cc2cc(F)cc(F)c2)C(=O)N1C` (centres unmarked) [Example 157, 1-(3,5-difluorobenzyl)-3,4-dimethyl-2-oxo-N-(2,4,6-trifluorobenzyl)-1,2,3,4-tetrahydroquinazoline-7-carboxamide], the EC50 is under 1000 nM.
`Cc1ccc(Cl)c(CN2C(=O)N(C)C(C)c3ccc(C(=O)NCc4c(F)cc(F)cc4F)cc32)c1F` (centres unmarked) [Example 163, 1-(6-chloro-2-fluoro-3-methylbenzyl)-3,4-dimethyl-2-oxo-N-(2,4,6-trifluorobenzyl)-1,2,3,4-tetrahydroquinazoline-7-carboxamide]: the EC50 was under 1000 nM.
For `O=C(NCc1c(F)cc(F)cc1F)c1ccc2c(c1)N(Cc1c(F)cccc1Cl)C(=O)N(c1ncccn1)C2` [Example 21, 1-(2-chloro-6-fluorobenzyl)-2-oxo-3-(pyrimidin-2-yl)-N-(2,4,6-trifluorobenzyl)-1,2,3,4-tetrahydroquinazoline-7-carboxamide], the EC50 is over 10000 nM.
As for `CC1c2ccc(C(=O)NCc3c(F)cc(F)cc3F)cc2N(Cc2c(F)cccc2F)C(=O)N1C` (centres unmarked) [Example 195, 1-(2,6-difluorobenzyl)-3,4-dimethyl-2-oxo-N-(2,4,6-trifluorobenzyl)-1,2,3,4-tetrahydroquinazoline-7-carboxamide], the EC50 is under 1000 nM.
Under `Cc1cc(CN2C(=O)N(C)C(C)c3ccc(C(=O)NCc4c(F)cc(F)cc4F)cc32)ccn1` (centres unmarked) [Example 207, 3,4-dimethyl-1-((2-methylpyridin-4-yl)methyl)-2-oxo-N-(2,4,6-trifluorobenzyl)-1,2,3,4-tetrahydroquinazoline-7-carboxamide] stands 1000 to 10000 nM; under `CN1Cc2ccc(C(=O)NCc3cccc(-c4ccnn4C)c3)cc2N(Cc2c(F)cccc2Cl)C1=O` [Example 29, 1-(2-chloro-6-fluorobenzyl)-3-methyl-N-(3-(1-methyl-1H-pyrazol-5-yl)benzyl)-2-oxo-1,2,3,4-tetrahydroquinazoline-7-carboxamide], over 10000 nM; under `CN1Cc2ccc(C(=O)NCc3cc4cc([N+](=O)[O-])ccc4o3)cc2N(Cc2c(F)cccc2Cl)C1=O` [Example 48, 1-(2-chloro-6-fluorobenzyl)-3-methyl-N-((5-nitrobenzofuran-2-yl)methyl)-2-oxo-1,2,3,4-tetrahydroquinazoline-7-carboxamide], over 10000 nM.
Consider `COc1ccc(CN2C(=O)N(C)C(C)c3ccc(C(=O)NCc4c(F)cc(F)cc4F)cc32)c(F)c1` (centres unmarked) [Example 217, 1-(2-fluoro-4-methoxybenzyl)-3,4-dimethyl-2-oxo-N-(2,4,6-trifluorobenzyl)-1,2,3,4-tetrahydroquinazoline-7-carboxamide], for which the EC50 was under 1000 nM.
Under `Cc1cccc(C)c1CN1C(=O)N(C)C(C)c2ccc(C(=O)NCc3c(F)cc(F)cc3F)cc21` (centres unmarked) [Example 215, 1-(2,6-dimethylbenzyl)-3,4-dimethyl-2-oxo-N-(2,4,6-trifluorobenzyl)-1,2,3,4-tetrahydroquinazoline-7-carboxamide] stands under 1000 nM; under `CN1Cc2ccc(C(=O)NCc3c(F)cc(F)cc3F)cc2N(Cc2cn3cc(F)ccc3n2)C1=O` [Example 45, 1-((6-fluoroimidazo[1,2-a]pyridin-2-yl)methyl)-3-methyl-2-oxo-N-(2,4,6-trifluorobenzyl)-l,2,3,4-tetrahydroquinazoline-7-carboxamide], over 10000 nM.
On to `C[C@H]1c2ccc(C(=O)NCc3c(F)cc(F)cc3F)cc2N(Cc2c(F)ccc(C(=O)NCCO)c2F)C(=O)N1C` [Example 143], for which the EC50 was under 1000 nM.
With `CC1c2ccc(C(=O)NCc3c(F)cc(F)cc3F)cc2N(Cc2cc(OCCO)ccc2F)C(=O)N1C` (centres unmarked) [Example 233, 1-(2-fluoro-5-(2-hydroxyethoxy)benzyl)-3,4-dimethyl-2-oxo-N-(2,4,6-trifluorobenzyl)-1,2,3,4-tetrahydroquinazoline-7-carboxamide], the EC50 was under 1000 nM.
For the compound `CC1c2ccc(C(=O)NCc3c(F)cc(F)cc3F)cc2N(Cc2cc(F)cc(F)c2)C(=O)N1C` (centres unmarked) [Example 152, 1-(3,5-difluorobenzyl)-3,4-dimethyl-2-oxo-N-(2,4,6-trifluorobenzyl)-1,2,3,4-tetrahydroquinazoline-7-carboxamide], the EC50 was under 1000 nM.
With `C[C@H]1c2ccc(C(=O)NCc3c(F)cc(F)cc3F)cc2N(Cc2c(Cl)cn(C)c(=O)c2F)C(=O)N1C` [Example 288, (S)-1-((5-chloro-3-fluoro-1-methyl-2-oxo-1,2-dihydropyridin-4-yl)methyl)3,4-dimethyl-2-oxo-N-(2,4,6-trifluorobenzyl)-1,2,3,4-tetrahydroquinazoline-7-carboxamide], the 50% effective concentration (EC50) is 1000 to 10000 nM.
`C[C@H]1c2ccc(C(=O)NCc3c(F)cc(F)cc3F)cc2N(Cc2c(F)cccc2NC(=O)CN)C(=O)N1C` [Example 272, (S)-1-(2-(2-aminoacetamido)-6-fluorobenzyl)-3,4-dimethyl-2-oxo-N-(2,4,6-trifluorobenzyl)-1,2,3,4-tetrahydroquinazoline-7-carboxamide dihydrochloride]: the EC50 lay in the range of 1000 to 10000 nM.
